The text below walks through data of US20240018161A1, “MODULATORS OF CYSTIC FIBROSIS TRANSMEMBRANE CONDUCTANCE REGULATOR” (VERTEX PHARMACEUTICALS INCORPORATED, priority 2020, published 2024).

Like-named read-outs stand apart in the source and are kept apart here.

In series [1] the target is CFTR-mediated chloride transport in human intestinal epithelial enteroid cells (Homo sapiens, UniProt P13569). Kind of series: Membrane potential dye, Enteroid Assay A. The format is cell-based. The following applies: for EC50: read-out: Ent. A EC50. The method in brief: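 Membrane potential dye (20 μM methyl oxonol, with 30 μM CaCCinh-A01 and 30 μM Chicago Sky Blue) loaded 25 min at room temperature into ROCK-inhibitor-seeded human enteroid cells. Chloride-free stimulation buffer triggered transport, followed by 15 min fluorescence. % Activity relative to 3 μM/3 μM/300 nM triple-combination control.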
Chain of CFTR-mediated chloride transport in human intestinal epithelial enteroid cells (P13569 with tags, fused parts or gaps DEL508-508): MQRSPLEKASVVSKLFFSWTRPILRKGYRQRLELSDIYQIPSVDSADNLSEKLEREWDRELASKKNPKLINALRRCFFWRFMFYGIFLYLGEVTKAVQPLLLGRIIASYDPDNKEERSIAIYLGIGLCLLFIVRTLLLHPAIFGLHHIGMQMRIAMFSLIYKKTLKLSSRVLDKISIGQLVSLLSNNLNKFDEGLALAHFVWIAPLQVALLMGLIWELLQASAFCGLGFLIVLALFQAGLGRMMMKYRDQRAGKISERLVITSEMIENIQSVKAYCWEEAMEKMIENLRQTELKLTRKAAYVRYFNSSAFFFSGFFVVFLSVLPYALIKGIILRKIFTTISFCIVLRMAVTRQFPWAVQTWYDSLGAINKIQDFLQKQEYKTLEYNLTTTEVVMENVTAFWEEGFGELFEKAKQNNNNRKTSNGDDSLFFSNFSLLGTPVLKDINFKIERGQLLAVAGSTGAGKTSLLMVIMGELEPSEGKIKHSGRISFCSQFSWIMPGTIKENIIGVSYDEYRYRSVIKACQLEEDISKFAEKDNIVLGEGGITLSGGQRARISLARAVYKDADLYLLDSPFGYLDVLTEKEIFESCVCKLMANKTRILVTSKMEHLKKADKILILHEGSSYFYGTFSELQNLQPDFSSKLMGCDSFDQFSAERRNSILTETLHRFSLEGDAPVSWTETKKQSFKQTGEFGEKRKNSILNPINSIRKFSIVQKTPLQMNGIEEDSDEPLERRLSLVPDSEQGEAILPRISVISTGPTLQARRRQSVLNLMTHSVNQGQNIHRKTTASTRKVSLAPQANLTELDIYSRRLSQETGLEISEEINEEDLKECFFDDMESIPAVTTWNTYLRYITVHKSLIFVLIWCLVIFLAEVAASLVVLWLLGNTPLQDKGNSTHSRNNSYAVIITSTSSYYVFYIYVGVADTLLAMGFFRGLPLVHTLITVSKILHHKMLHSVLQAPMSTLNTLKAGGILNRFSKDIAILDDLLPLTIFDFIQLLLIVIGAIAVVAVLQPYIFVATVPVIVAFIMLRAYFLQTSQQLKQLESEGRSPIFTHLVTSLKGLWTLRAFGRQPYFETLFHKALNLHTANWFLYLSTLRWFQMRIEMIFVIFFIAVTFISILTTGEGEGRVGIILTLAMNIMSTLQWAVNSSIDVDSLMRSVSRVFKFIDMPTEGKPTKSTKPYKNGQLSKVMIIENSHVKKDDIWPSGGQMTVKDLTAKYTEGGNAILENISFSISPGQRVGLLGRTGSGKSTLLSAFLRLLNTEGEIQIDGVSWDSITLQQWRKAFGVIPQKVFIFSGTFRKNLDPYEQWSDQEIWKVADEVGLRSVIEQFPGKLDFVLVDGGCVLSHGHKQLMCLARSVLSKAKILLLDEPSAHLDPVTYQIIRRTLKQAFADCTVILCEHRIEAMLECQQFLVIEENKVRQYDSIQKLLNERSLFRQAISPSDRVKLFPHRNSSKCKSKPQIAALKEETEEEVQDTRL

Where [2] appears, read: enteroid cells incubated with test compound 18-24 hours, acute 10 μM forskolin and 300 nM N-[2,4-bis(1,1-dimethylethyl)-5-hydroxyphenyl]-1,4-dihydro-4-oxoquinoline-3-carboxamide.
The mark [3] stands for this setting: percentage of chloride transport of triple combination control (3 μM N-[(6-amino-2-pyridyl)sulfonyl]-6-(3-fluoro-5-isobutoxy-phenyl)-2-[(4S)-2,2,4-trimethylpyrrolidin-1-yl]pyridine-3-carboxamide based).

Turning to `Cc1cccc(C)c1-c1cc2nc(n1)NS(=O)(=O)c1cccc(c1)C(=O)N1CCN(C(C)(C)C)C[C@H](C1)O2` [Compound 71, (16R)-18-tert-Butyl-12-(2,6-dimethylphenyl)-15-oxa-8λ^6-thia-1,9,11,18,22-pentaazatetracyclo[14.4.1.13,7.110,14]tricosa-3(23),4,6,10(22),11,13-hexaene-2,8,8-trione], in series [1] (Enteroid Assay A), the “Ent. A Max Activity (%)” value is given as “+++ (+++ is >600%)” and the EC50 – broadly, the concentration giving half of the maximal effect – is below 1000 nM. The ring closure, yield after HPLC (from Cc1cccc(C)c1-c1cc(Cl)nc(NS(=O)(=O)c2cccc(C(=O)N3CCN(C(C)(C)C)C[C@@H](O)C3)c2)n1, snar bond, 13-membered ring, NaH, DMF, 33.9 mM, 25.0 °C, 4.17 h) came out at 37%.

For the compound `Cc1cccc(C)c1-c1cc2nc(n1)NS(=O)(=O)c1cccc(c1)C(=O)N1CC(CN(Cc3ccccc3)[C@@H](CC(C)C)C1)O2` (stereo partly drawn) [Compound 107, (19S)-18-Benzyl-12-(2,6-dimethylphenyl)-19-(2-methylpropyl)-15-oxa-8λ^6-thia-1,9,11,18,22-pentaazatetracyclo[14.4.1.13,7.110,14]tricosa-3(23),4,6,10(22),11,13-hexaene-2,8,8-trione], in series [1] (Enteroid Assay A), the “Ent. A Max Activity (%)” value is reported as “+++ (+++ is >600%)” and the EC50 was below 1000 nM. Also, under “from Cc1cccc(C)c1-c1cc(Cl)nc(NS(=O)(=O)c2cccc(C(=O)N3CC(O)CN(Cc4ccccc4)[C@@H](CC(C)C)C3)c2)n1, snar bond, 13-membered ring, NaH, DMF, 29.1 mM, 0.0 °C, 4.0 h”, the ring closure, yield after HPLC was 3%.

`Cc1cccc(C)c1-c1cc2nc(n1)NS(=O)(=O)c1cccc(c1)NC(=O)CN1CCCC(C1)O2` (stereo not shown) [Compound 160, 5-(2,6-Dimethylphenyl)-2-oxa-9λ^6-thia-6,8,15,18,24-pentaazatetracyclo[16.3.1.13,7.110,14]tetracosa-3(24),4,6,10,12,14(23)-hexaene-9,9,16-trione]: the EC50 in series [1] (setting [2]) is 1000 to 3000 nM. Besides, the “Ent. A Max Activity (%)” value in series [1] (setting [3]) is recorded as “+ (+ is <300%)”. Moreover, the ring closure, yield after HPLC (from Cc1cccc(C)c1-c1cc(OC2CCCN(CC(=O)Nc3cccc(S(N)(=O)=O)c3)C2)nc(Cl)n1, cn_pd bond, 15-membered ring, Pd(OAc)2/Xantphos/Cs2CO3, dioxane, 20.1 mM, 100.0 °C, 16.0 h) is 17%.

For the compound `Cc1cccc(C)c1-c1cc2nc(n1)NS(=O)(=O)c1cccc(c1)C(=O)N1CCN(CCC3(C(F)(F)F)CC3)CC1CO2` (stereo not shown) [Compound 170, 13-(2,6-Dimethylphenyl)-6-{2-[1-(trifluoromethyl)cyclopropyl]ethyl}-10-oxa-17λ^6-thia-3,6,14,16,23-pentaazatetracyclo[16.3.1.111,15.03,8]tricosa-1(22),11,13,15(23),18,20-hexaene-2,17,17-trione], the EC50 in series [1] (setting [2]) was below 1000 nM. Also, in series [1] (setting [3]), the “Ent. A Max Activity (%)” value is “++ (++ is 30-60%)”. For the same compound, under “from Cc1cccc(C)c1-c1cc(OCC2CN(CCC3(C(F)(F)F)CC3)CCN2)nc(NS(=O)(=O)c2cccc(C(=O)O)c2)n1, amide bond, 13-membered ring, HATU/DIEA, DMF, 18.7 mM, 25.0 °C, 1.0 h, 3 steps”, the ring closure, yield after HPLC amounted to 14%.

As to `Cc1cccc(C)c1-c1cc2nc(n1)NS(=O)(=O)c1cccc(c1)C(=O)N1CCN(C(=O)OC(C)(C)C)CC1C(C)O2` (stereo not shown) [Compound 173, tert-Butyl 13-(2,6-dimethylphenyl)-9-methyl-2,17,17-trioxo-10-oxa-17λ^6-thia-3,6,14,16,23-pentaazatetracyclo[16.3.1.111,15.03,8]tricosa-1(22),11,13,15(23),18,20-hexaene-6-carboxylate], the concentration giving a half-maximal response (EC50) in series [1] (setting [2]) lay within 1000 to 3000 nM. Moreover, in series [1] (setting [3]), the “Ent. A Max Activity (%)” value is “++ (++ is 30-60%)”. This compound returned a ring closure, yield after HPLC (from Cc1cccc(C)c1-c1cc(OC(C)C2CN(C(=O)OC(C)(C)C)CCN2)nc(NS(=O)(=O)c2cccc(C(=O)O)c2)n1, amide bond, 13-membered ring, HATU/DIEA, DMF, 10.9 mM, 25.0 °C, 0.5 h) of 19%.

For `Cc1cccc(C)c1-c1cc2nc(n1)NS(=O)(=O)c1cccc(c1)C(=O)N1CCN(C(=O)OC(C)(C)C)CC1C(Cc1ccccc1)O2` (stereo not shown) [Compound 175, tert-butyl 9-benzyl-13-(2,6-dimethylphenyl)-2,17,17-trioxo-10-oxa-17λ^6-thia-3,6,14,16,23-pentaazatetracyclo[16.3.1.111,15.03,8]tricosa-1(22),11,13,15(23),18,20-hexaene-6-carboxylate], in series [1] (Enteroid Assay A), the “Ent. A Max Activity (%)” value is on record as “++ (++ is 30-60%)” and the EC50 is below 1000 nM. The same compound gave a ring closure, yield after HPLC (from Cc1cccc(C)c1-c1cc(OC(Cc2ccccc2)C2CN(C(=O)OC(C)(C)C)CCN2)nc(NS(=O)(=O)c2cccc(C(=O)O)c2)n1, amide bond, 13-membered ring, HATU/DIEA, DMF, 10.8 mM, 25.0 °C, 0.083 h) of 55%.

As for `Cc1cccc(C)c1-c1cc2nc(n1)NS(=O)(=O)c1cccc(c1)C(=O)N1Cc3cc(C(C)(C)C)ccc3[C@@H](O2)[C@H]1CC(C)(C)C` [Compound 189, (16R,24R)-20-tert-butyl-12-(2,6-dimethylphenyl)-24-(2,2-dimethylpropyl)-15-oxa-8λ^6-thia-1,9,11,25-tetraazapentacyclo[14.7.1.13,7.110,14.017,22]hexacosa-3(26),4,6,10(25),11,13,17,19,21-nonaene-2,8,8-trione], in series [1] (Enteroid Assay A), the half-maximal effective concentration (EC50) was below 1000 nM. The ring closure, yield after HPLC (from Cc1cccc(C)c1-c1cc(O[C@@H]2c3ccc(C(C)(C)C)cc3CN[C@@H]2CC(C)(C)C)nc(NS(=O)(=O)c2cccc(C(=O)O)c2)n1, amide bond, 13-membered ring, HATU/NaOtBu, DMF/THF, 0.25 h, 2 steps) came out at 0.35%.

Turning to `Cc1ccccc1-c1cc2nc(n1)NS(=O)(=O)c1cccc(c1)C(=O)N1Cc3ccccc3[C@@H](O2)[C@H]1CC(C)C` [Compound 192, (16R,24R)-12-(2-Methylphenyl)-24-(2-methylpropyl)-15-oxa-8λ^6-thia-1,9,11,25-tetraazapentacyclo[14.7.1.13,7.110,14.017,22]hexacosa-3(26),4,6,10,12,14(25),17,19,21-nonaene-2,8,8-trione], the EC50 in series [1] (Enteroid Assay A) is below 1000 nM. For the setting “from Cc1ccccc1-c1cc(O[C@@H]2c3ccccc3CN[C@@H]2CC(C)C)nc(NS(=O)(=O)c2cccc(C(=O)O)c2)n1, amide bond, 13-membered ring, HATU/DIEA, DMF, 424.0 mM, 0.5 h, 3 steps”, this compound yielded a ring closure, yield after HPLC of 9%.

In the case of `Cc1cccc(C)c1-c1cc2nc(n1)NS(=O)(=O)c1cccc(c1)C(=O)N1Cc3cnccc3C(C1)O2` (stereo not shown) [Compound 194, 12-(2,6-Dimethylphenyl)-15-oxa-8λ^6-thia-1,9,11,20,25-pentaazapentacyclo[14.7.1.13,7.110,14.017,22]hexacosa-3(26),4,6,10,12,14(25),17,19,21-nonaene-2,8,8-trione], the EC50 in series [1] (setting [2]) is 3000 to 30000 nM. Also, the “Ent. A Max Activity (%)” value in series [1] (setting [3]) is reported as “++ (++ is 30-60%)”. Where the note is “from Cc1cccc(C)c1-c1cc(OC2CNCc3cnccc32)nc(NS(=O)(=O)c2cccc(C(=O)O)c2)n1, amide bond, 13-membered ring, HATU/DIEA, DMF, 19.0 mM, 0.5 h, 3 steps”, this compound displayed a ring closure, yield after HPLC of 1%.

`Cc1cccc(C)c1-c1cc2nc(n1)NS(=O)(=O)c1cccc(c1)C(=O)N1Cc3ncccc3C(C1)O2` (stereo not shown) [Compound 198, 12-(2,6-Dimethylphenyl)-15-oxa-8λ^6-thia-1,9,11,21,25-pentaazapentacyclo[14.7.1.13,7.110,14.017,22]hexacosa-3,5,7(26),10(25),11,13,17,19,21-nonaene-2,8,8-trione]: the EC50 in series [1] (setting [2]) was in the range of 1000 to 3000 nM. In addition, the “Ent. A Max Activity (%)” value in series [1] (setting [3]) is given as “++ (++ is 30-60%)”. This compound showed a ring closure, yield after HPLC (from Cc1cccc(C)c1-c1cc(OC2CNCc3ncccc32)nc(NS(=O)(=O)c2cccc(C(=O)O)c2)n1, amide bond, 13-membered ring, HATU/DIEA, NMP, 132.0 mM, 25.0 °C, 1.0 h) of 44%.

For the compound `Cc1cccc(C)c1-c1cc2nc(n1)NS(=O)(=O)c1cccc(c1)C(=O)N1CC[C@@H](C1)O2` [Compound 213, (3S)-17-(2,6-Dimethylphenyl)-2-oxa-13λ^6-thia-6,14,16,19-tetraazatetracyclo[13.3.1.13,6.18,12]henicosa-1(19),8(20),9,11,15,17-hexaene-7,13,13-trione], in series [1] (setting [2]), the EC50 lay within 3000 to 30000 nM. Further, the “Ent. A Max Activity (%)” value in series [1] (setting [3]) was “+++ (+++ is >60%)”. Further, the ring closure, yield after HPLC (from Cc1cccc(C)c1-c1cc(O[C@H]2CCNC2)nc(NS(=O)(=O)c2cccc(C(=O)O)c2)n1, amide bond, 13-membered ring, HATU/TEA, DMF, 53.7 mM, 25.0 °C, 1.0 h) is 20%.

Take `Cc1cccc(C)c1-c1cc2nc(n1)NS(=O)(=O)c1cccc(c1)C(=O)N1CCC(O2)c2ccccc2C1` (stereo not shown) [Compound 227, 12-(2,6-dimethylphenyl)-15-oxa-8λ^6-thia-1,9,11,26-tetraazapentacyclo[14.7.2.13,7.110,14.017,22]heptacosa-3(27),4,6,10(26),11,13,17,19,21-nonaene-2,8,8-trione]: the EC50 in series [1] (setting [2]) is below 1000 nM. The “Ent. A Max Activity (%)” value in series [1] (setting [3]) is “++ (++ is 30-60%)”. The compound also displayed a ring closure, yield after HPLC (from Cc1cccc(C)c1-c1cc(OC2CCNCc3ccccc32)nc(NS(=O)(=O)c2cccc(C(=O)O)c2)n1, amide bond, 14-membered ring, HATU/DIEA, DMF, 13.1 mM, 25.0 °C, 0.083 h, 3 steps) of 12%.

On to `Cc1cccc(C)c1-c1cc2nc(n1)NS(=O)(=O)c1cccc(c1)C(=O)N1CC(CCc3ccccc31)O2` (stereo not shown) [Compound 228, 5-(2,6-Dimethylphenyl)-2-oxa-9λ^6-thia-6,8,16,27-tetraazapentacyclo[14.8.1.13,7.110,14.017,22]heptacosa-3(27),4,6,10,12,14(26),17(22),18,20-nonaene-9,9,15-trione], for which, in series [1] (Enteroid Assay A), the “Ent. A Max Activity (%)” value is “++ (++ is 30-60%)” and the EC50 lay within 1000 to 3000 nM. Also, the ring closure, yield after HPLC (from Cc1cccc(C)c1-c1cc(Cl)nc(NS(=O)(=O)c2cccc(C(=O)N3CC(O)CCc4ccccc43)c2)n1, snar bond, 13-membered ring, NaH, DMF, 21.9 mM, 25.0 °C, 48.0 h) came out at 15%.
